{
  "source": "ChEMBL document CHEMBL6115036",
  "about": "“Exploration of membrane-active cephalosporin derivatives as potent antibacterial agents against Staphylococcus aureus biofilms and persisters” (Eur J Med Chem, 2025)",
  "assay_type_in_all_cases": "functional",
  "conditions_in_all_cases": "time 16-18 hrs",
  "key": {"Enterococcus faecalis": {"system": "Enterococcus faecalis", "assay": "Antimicrobial activity against Enterococcus faecalis incubated for 16 to 18 hrs by broth dilution assay"}, "Escherichia coli": {"system": "Escherichia coli", "assay": "Antimicrobial activity against Escherichia coli incubated for 16 to 18 hrs by broth dilution assay"}, "Staphylococcus aureus": {"system": "Staphylococcus aureus", "assay": "Antimicrobial activity against Staphylococcus aureus incubated for 16 to 18 hrs by broth dilution assay"}, "[1]": {"system": "Stenotrophomonas maltophilia", "assay": "Antimicrobial activity against Stenotrophomonas maltophilia incubated for 16 to 18 hrs by broth dilution assay"}},
  "data": [
    {"smiles": "CCCC[n+]1ccc(C(=O)N[C@@H]2C(=O)N3C(C(=O)OC(c4ccccc4)c4ccccc4)=C(COC(C)=O)CS[C@H]23)cc1.[I-]", "values": [
      {"measurement": "MIC", "setting": "Enterococcus faecalis", "value": 128, "unit": "µg/mL"},
      {"measurement": "MIC", "setting": "Escherichia coli", "value": "> 128", "unit": "µg/mL"},
      {"measurement": "MIC", "setting": "Staphylococcus aureus", "value": 128, "unit": "µg/mL"},
      {"measurement": "MIC", "setting": "[1]", "value": "> 128", "unit": "µg/mL"}
    ]},
    {"smiles": "O=C(Cc1ccccc1)N[C@@H]1C(=O)N2C(C(=O)O)=C(CSc3ccncc3)CS[C@H]12", "values": [
      {"measurement": "MIC", "setting": "Enterococcus faecalis", "value": 16, "unit": "µg/mL"},
      {"measurement": "MIC", "setting": "Escherichia coli", "value": 64, "unit": "µg/mL"},
      {"measurement": "MIC", "setting": "Staphylococcus aureus", "value": 0.063, "unit": "µg/mL"},
      {"measurement": "MIC", "setting": "[1]", "value": 64, "unit": "µg/mL"}
    ]},
    {"smiles": "CCCCCC[n+]1ccc(SCC2=C(C(=O)OCc3ccc(OC)cc3)N3C(=O)[C@@H](NC(=O)Cc4ccccc4)[C@H]3SC2)cc1.O=C([O-])C(F)(F)F", "values": [
      {"measurement": "MIC", "setting": "Enterococcus faecalis", "value": 16, "unit": "µg/mL"},
      {"measurement": "MIC", "setting": "Escherichia coli", "value": 64, "unit": "µg/mL"},
      {"measurement": "MIC", "setting": "Staphylococcus aureus", "value": 0.063, "unit": "µg/mL"},
      {"measurement": "MIC", "setting": "[1]", "value": 64, "unit": "µg/mL"}
    ]},
    {"smiles": "CCCC[n+]1ccc(C(=O)N[C@@H]2C(=O)N3C(C(=O)O)=C(COC(C)=O)CS[C@H]23)cc1.[I-]", "values": [
      {"measurement": "MIC", "setting": "Enterococcus faecalis", "value": "> 128", "unit": "µg/mL"},
      {"measurement": "MIC", "setting": "Escherichia coli", "value": "> 128", "unit": "µg/mL"},
      {"measurement": "MIC", "setting": "Staphylococcus aureus", "value": "> 128", "unit": "µg/mL"},
      {"measurement": "MIC", "setting": "[1]", "value": "> 128", "unit": "µg/mL"}
    ]},
    {"smiles": "CC(=O)OCC1=C(C(=O)O)N2C(=O)[C@@H](NC(=O)c3cc[n+](C)cc3)[C@H]2SC1.[I-]", "values": [
      {"measurement": "MIC", "setting": "Enterococcus faecalis", "value": "> 128", "unit": "µg/mL"},
      {"measurement": "MIC", "setting": "Escherichia coli", "value": "> 128", "unit": "µg/mL"},
      {"measurement": "MIC", "setting": "Staphylococcus aureus", "value": 128, "unit": "µg/mL"},
      {"measurement": "MIC", "setting": "[1]", "value": "> 128", "unit": "µg/mL"}
    ]},
    {"smiles": "CCCCCC[n+]1ccc(SCC2=C(C(=O)O)N3C(=O)[C@@H](NC(=O)Cc4ccccc4)[C@H]3SC2)cc1.O=C([O-])C(F)(F)F", "values": [
      {"measurement": "MIC", "setting": "Enterococcus faecalis", "value": 8, "unit": "µg/mL"},
      {"measurement": "MIC", "setting": "Escherichia coli", "value": 32, "unit": "µg/mL"},
      {"measurement": "MIC", "setting": "Staphylococcus aureus", "value": 0.063, "unit": "µg/mL"},
      {"measurement": "MIC", "setting": "[1]", "value": 32, "unit": "µg/mL"}
    ]},
    {"smiles": "CCCCCCCCCCCCNC(=O)c1ccc[n+](CC2=C(C(=O)OCc3ccc(OC)cc3)N3C(=O)[C@@H](NC(=O)Cc4ccccc4)[C@H]3SC2)c1.[I-]", "values": [
      {"measurement": "MIC", "setting": "Staphylococcus aureus", "value": 0.25, "unit": "µg/mL"}
    ]},
    {"smiles": "CCCC[n+]1ccc(SCC2=C(C(=O)OCc3ccc(OC)cc3)N3C(=O)[C@@H](NC(=O)Cc4ccccc4)[C@H]3SC2)cc1.O=C([O-])C(F)(F)F", "values": [
      {"measurement": "MIC", "setting": "Enterococcus faecalis", "value": 16, "unit": "µg/mL"},
      {"measurement": "MIC", "setting": "Escherichia coli", "value": 16, "unit": "µg/mL"},
      {"measurement": "MIC", "setting": "Staphylococcus aureus", "value": 0.125, "unit": "µg/mL"},
      {"measurement": "MIC", "setting": "[1]", "value": 32, "unit": "µg/mL"}
    ]},
    {"smiles": "CCCCCCCCCCCCCCNC(=O)c1ccc[n+](CC2=C(C(=O)OCc3ccc(OC)cc3)N3C(=O)[C@@H](NC(=O)Cc4ccccc4)[C@H]3SC2)c1.[I-]", "values": [
      {"measurement": "MIC", "setting": "Staphylococcus aureus", "value": 0.25, "unit": "µg/mL"}
    ]},
    {"smiles": "CCCC[n+]1ccc(SCC2=C(C(=O)O)N3C(=O)[C@@H](NC(=O)Cc4ccccc4)[C@H]3SC2)cc1.O=C([O-])C(F)(F)F", "values": [
      {"measurement": "MIC", "setting": "Enterococcus faecalis", "value": 8, "unit": "µg/mL"},
      {"measurement": "MIC", "setting": "Escherichia coli", "value": 4, "unit": "µg/mL"},
      {"measurement": "MIC", "setting": "Staphylococcus aureus", "value": 0.063, "unit": "µg/mL"},
      {"measurement": "MIC", "setting": "[1]", "value": 8, "unit": "µg/mL"}
    ]},
    {"smiles": "CCCCCCCCCC[n+]1ccc(C(=O)N[C@@H]2C(=O)N3C(C(=O)O)=C(COC(C)=O)CS[C@H]23)cc1.[I-]", "values": [
      {"measurement": "MIC", "setting": "Enterococcus faecalis", "value": 128, "unit": "µg/mL"},
      {"measurement": "MIC", "setting": "Escherichia coli", "value": "> 128", "unit": "µg/mL"},
      {"measurement": "MIC", "setting": "Staphylococcus aureus", "value": 128, "unit": "µg/mL"},
      {"measurement": "MIC", "setting": "[1]", "value": "> 128", "unit": "µg/mL"}
    ]},
    {"smiles": "CC(=O)OCC1=C(C(=O)O)N2C(=O)[C@@H](NC(=O)c3ccncc3)[C@H]2SC1", "values": [
      {"measurement": "MIC", "setting": "Enterococcus faecalis", "value": "> 128", "unit": "µg/mL"},
      {"measurement": "MIC", "setting": "Escherichia coli", "value": "> 128", "unit": "µg/mL"},
      {"measurement": "MIC", "setting": "Staphylococcus aureus", "value": 16, "unit": "µg/mL"},
      {"measurement": "MIC", "setting": "[1]", "value": "> 128", "unit": "µg/mL"}
    ]},
    {"smiles": "CC[n+]1ccc(SCC2=C(C(=O)O)N3C(=O)[C@@H](NC(=O)Cc4ccccc4)[C@H]3SC2)cc1.O=C([O-])C(F)(F)F", "values": [
      {"measurement": "MIC", "setting": "Enterococcus faecalis", "value": 8, "unit": "µg/mL"},
      {"measurement": "MIC", "setting": "Escherichia coli", "value": 8, "unit": "µg/mL"},
      {"measurement": "MIC", "setting": "Staphylococcus aureus", "value": 0.063, "unit": "µg/mL"},
      {"measurement": "MIC", "setting": "[1]", "value": 8, "unit": "µg/mL"}
    ]},
    {"smiles": "CC[n+]1ccc(SCC2=C(C(=O)OCc3ccc(OC)cc3)N3C(=O)[C@@H](NC(=O)Cc4ccccc4)[C@H]3SC2)cc1.O=C([O-])C(F)(F)F", "values": [
      {"measurement": "MIC", "setting": "Enterococcus faecalis", "value": 16, "unit": "µg/mL"},
      {"measurement": "MIC", "setting": "Escherichia coli", "value": 16, "unit": "µg/mL"},
      {"measurement": "MIC", "setting": "Staphylococcus aureus", "value": 0.125, "unit": "µg/mL"},
      {"measurement": "MIC", "setting": "[1]", "value": 16, "unit": "µg/mL"}
    ]},
    {"smiles": "CCCCCCNC(=O)c1ccc[n+](CC2=C(C(=O)OCc3ccc(OC)cc3)N3C(=O)[C@@H](NC(=O)Cc4ccccc4)[C@H]3SC2)c1.[I-]", "values": [
      {"measurement": "MIC", "setting": "Staphylococcus aureus", "value": 0.25, "unit": "µg/mL"}
    ]},
    {"smiles": "CCCCNC(=O)c1ccc[n+](CC2=C(C(=O)OCc3ccc(OC)cc3)N3C(=O)[C@@H](NC(=O)Cc4ccccc4)[C@H]3SC2)c1.[I-]", "values": [
      {"measurement": "MIC", "setting": "Staphylococcus aureus", "value": 0.25, "unit": "µg/mL"}
    ]},
    {"smiles": "CCCCCCNC(=O)c1cc[n+](CC2=C(C(=O)OCc3ccc(OC)cc3)N3C(=O)[C@@H](NC(=O)Cc4ccccc4)[C@H]3SC2)cc1.[I-]", "values": [
      {"measurement": "MIC", "setting": "Staphylococcus aureus", "value": 0.25, "unit": "µg/mL"}
    ]},
    {"smiles": "CC(=O)OCC1=C(C(=O)OC(c2ccccc2)c2ccccc2)N2C(=O)[C@@H](NC(=O)c3cc[n+](C)cc3)[C@H]2SC1.[I-]", "values": [
      {"measurement": "MIC", "setting": "Enterococcus faecalis", "value": "> 128", "unit": "µg/mL"},
      {"measurement": "MIC", "setting": "Escherichia coli", "value": "> 128", "unit": "µg/mL"},
      {"measurement": "MIC", "setting": "Staphylococcus aureus", "value": 128, "unit": "µg/mL"},
      {"measurement": "MIC", "setting": "[1]", "value": "> 128", "unit": "µg/mL"}
    ]},
    {"smiles": "COc1ccc(COC(=O)C2=C(C[n+]3ccccc3)CS[C@@H]3[C@H](NC(=O)Cc4ccccc4)C(=O)N23)cc1.[I-]", "values": [
      {"measurement": "MIC", "setting": "Staphylococcus aureus", "value": 0.25, "unit": "µg/mL"}
    ]},
    {"smiles": "CCCCNC(=O)c1cc[n+](CC2=C(C(=O)OCc3ccc(OC)cc3)N3C(=O)[C@@H](NC(=O)Cc4ccccc4)[C@H]3SC2)cc1.[I-]", "values": [
      {"measurement": "MIC", "setting": "Staphylococcus aureus", "value": 0.25, "unit": "µg/mL"}
    ]}
  ]
}
